For this assay, the system named is MCF7 multi-cell spheroids with HUVEC/MSC, viability. Briefly: Anticancer human tumor MCF7 cell line growth inhibition [IpAb].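 On all read-outs here: spheroids exposed to agents for seven days before readout.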 As to conditions: for viability, T/C: stronger effect = lower value. In a few lines: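 Multi-cell spheroids of 60% tumour cells, 25% HUVEC and 15% MSC in ultra-low-attachment U-bottom wells, treated with agents combined with ipatasertib or abemaciclib. Half-log ranges top out near clinical Cmax, or 10 microM when Cmax is unknown.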

[1] abbreviates: curve of first compound, second compound 0.1 µM.
The mark [2] stands for this setting: curve of first compound, second compound 0.316 µM.
Where [3] appears, read: curve of first compound, second compound 1 µM.
The mark [4] stands for this setting: curve of first compound, second compound 3.16 µM.
The mark [5] stands for this setting: curve of first compound, second compound 10 µM.
Where [6] appears, read: second compound 0.1 µM, first compound 0.0316 µM.
The mark [7] stands for this setting: second compound 0.1 µM, first compound 0.1 µM.
Setting [8] is: second compound 0.1 µM, first compound 0.316 µM.
Where [9] appears, read: second compound 0.1 µM, first compound 1 µM.
The mark [10] stands for this setting: second compound 0.1 µM, first compound 3.16 µM.
The mark [11] stands for this setting: second compound 0.1 µM, first compound 10 µM.
Where [12] appears, read: second compound 0.316 µM, first compound 0.0316 µM.
The mark [13] stands for this setting: second compound 0.316 µM, first compound 0.1 µM.
Where [14] appears, read: second compound 0.316 µM, first compound 0.316 µM.
Setting [15] is: second compound 0.316 µM, first compound 1 µM.
Setting [16] is: second compound 0.316 µM, first compound 3.16 µM.
Setting [17] is: second compound 0.316 µM, first compound 10 µM.
Where [18] appears, read: second compound 1 µM, first compound 0.0316 µM.
The mark [19] stands for this setting: second compound 1 µM, first compound 0.1 µM.
The mark [20] stands for this setting: second compound 1 µM, first compound 0.316 µM.
[21] abbreviates: second compound 1 µM, first compound 1 µM.
[22] abbreviates: second compound 1 µM, first compound 3.16 µM.
The mark [23] stands for this setting: second compound 1 µM, first compound 10 µM.
[24] abbreviates: second compound 3.16 µM, first compound 0.0316 µM.
Where [25] appears, read: second compound 3.16 µM, first compound 0.1 µM.
Setting [26] is: second compound 3.16 µM, first compound 0.316 µM.
The mark [27] stands for this setting: second compound 3.16 µM, first compound 1 µM.
Where [28] appears, read: second compound 3.16 µM, first compound 3.16 µM.
The mark [29] stands for this setting: second compound 3.16 µM, first compound 10 µM.
Setting [30] is: second compound 10 µM, first compound 0.0316 µM.
Setting [31] is: second compound 10 µM, first compound 0.1 µM.
Setting [32] is: second compound 10 µM, first compound 0.316 µM.
Setting [33] is: second compound 10 µM, first compound 1 µM.
Setting [34] is: second compound 10 µM, first compound 3.16 µM.
[35] abbreviates: second compound 10 µM, first compound 10 µM.

Where “and” joins values, the source holds several entries; their conditions need not be identical. Equal entries are not always repeated.

`Cc1nc(NC(=O)N2CCCC2C(N)=O)sc1-c1ccnc(C(C)(C)C(F)(F)F)c1` (stereo not given) + CC(C)NCC(C(=O)N1CCN(c2ncnc3c2C(C)CC3O)CC1)c1ccc(Cl)cc1: the IC50 reads like this: under setting [1], 1810 nM; under setting [2], 398 nM; under setting [3], less than 31.6 nM; under setting [4], less than 31.6 nM; under setting [5], less than 31.6 nM. The viability, T/C runs as follows: under setting [6], 68.9%; under setting [7], 66.4%; under setting [8], 56.9%; under setting [9], 52.7%; under setting [10], 49.6%; under setting [11], 20.4%. Besides, the viability, T/C was 62.4% under setting [12]; 57% under setting [13]; 50.3% under setting [14]; 42.8% under setting [15]; 37.8% under setting [16]; 19.9% under setting [17]. Further, the viability, T/C is, setting by setting: under setting [18], 45.8%; under setting [19], 52.7%; under setting [20], 36.2%; under setting [21], 34.7%; under setting [22], 34.4%; under setting [23], 9.85%. For the same molecule, the viability, T/C was 36.9% under setting [24]; 38.1% under setting [25]; 35.4% under setting [26]; 29.5% under setting [27]; 27.1% under setting [28]; 7.55% under setting [29]. Further, the viability, T/C under setting [30] was 28.6%; the viability, T/C under setting [31] is 25.9%; the viability, T/C under setting [32] is 26.1%; the viability, T/C under setting [33] was 21.5%; the viability, T/C under setting [34] is 28.4%; the viability, T/C under setting [35] is 1.68%.

Regarding `CCN1CCN(Cc2ccc(Nc3ncc(F)c(-c4cc(F)c5nc(C)n(C(C)C)c5c4)n3)nc2)CC1`, the viability, T/C is, setting by setting: (compound 0.01 µM) 97.5% [middle of 13 runs]; (compound 0.0316 µM) 101% [middle of 13 runs]. Also, the IC50 (compound alone, run of 06/01/2021) is more than 1000 nM.

In the case of `C=CCn1c(=O)c2cnc(Nc3ccc(N4CCN(C)CC4)cc3)nc2n1-c1cccc(C(C)(C)O)n1` + CC(C)NCC(C(=O)N1CCN(c2ncnc3c2C(C)CC3O)CC1)c1ccc(Cl)cc1, the IC50 is, setting by setting: under setting [1], 543 nM; under setting [2], 367 nM; under setting [3], 169 nM; under setting [4], less than 31.6 nM; under setting [5], less than 31.6 nM. Moreover, the viability, T/C by setting is: under setting [6], 89.1%; under setting [7], 99.2%; under setting [8], 67.4%; under setting [9], 31.8%; under setting [10], 26.3%; under setting [11], 33%. Further, the viability, T/C under setting [12] was 77.8%; the viability, T/C under setting [13] was 80.9%; the viability, T/C under setting [14] was 49.4%; the viability, T/C under setting [15] is 37.4%; the viability, T/C under setting [16] is 23.2%; the viability, T/C under setting [17] was 27%. Moreover, the viability, T/C reads like this: under setting [18], 64.2%; under setting [19], 61.6%; under setting [20], 36.5%; under setting [21], 20.9%; under setting [22], 17.7%; under setting [23], 16.4%. Further, the viability, T/C is 49.6% under setting [24]; 38.2% under setting [25]; 25.5% under setting [26]; 14.6% under setting [27]; 11.2% under setting [28]; 7.69% under setting [29]. Besides, the viability, T/C runs as follows: under setting [30], 42.4%; under setting [31], 33.2%; under setting [32], 19.4%; under setting [33], 10.6%; under setting [34], 8.49%; under setting [35], 4.08%.

Consider `Cn1ncc(Cl)c1-c1cc(C(=O)NC(CN)Cc2cccc(F)c2)sc1Cl` (stereo not given), for which the viability, T/C (compound 0.0316 µM) was 89.2% and 85.5%; the viability, T/C (compound 0.1 µM) is 88.8% and 84.4%; the viability, T/C (compound 0.316 µM) was 79.7% and 72.8%; the viability, T/C (compound 1 µM) was 57.6% and 50.1%; the viability, T/C (compound 3.16 µM) is 8.42% and 19.3%; the viability, T/C (compound 10 µM) is 0.22% and 0.25%. Also, the IC50 (curve of compound) was 1170 nM and 998 nM.

What is called IC50 is the concentration needed to halve the response being measured. For orientation: viability, T/C means the ratio of treated to control.

Values taken from PubChem BioAssay AID2060329 (Molecular Pharmacology Branch, DTP, NCI, 2025).
